Results taken from PubChem BioAssay AID256 (DTP/NCI, 2004).
“And” between values parts separate entries of the source, which are not always exact repeats. Equal values may be shown once. Toxic doses and inconclusive results are not listed.

Test system: CD2F1 mice, L1210 leukemia ip, survival T/C
Test: NCI In Vivo Anticancer Drug Screen. Data for tumor model L1210 Leukemia (intraperitoneal) in CD2F1 (CDF1) mice
Conditions: higher = longer survival
Procedure, shortened: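 Mice carrying a transplanted tumor received test compound or vehicle alone. The value is the measurement in the treated group divided by that in the vehicle-treated control group.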

[1] = endpoint: mean survival time, dose: 100.0 mg/kg/injection, schedule: Q04DX002 (ip), vehicle: saline with Tween-80
[2] = endpoint: mean survival time, dose: 200.0 mg/kg/injection, schedule: Q04DX002 (ip), vehicle: saline with Tween-80
[3] = endpoint: mean survival time, dose: 400.0 mg/kg/injection, schedule: Q04DX002 (ip), vehicle: saline with Tween-80
[4] = endpoint: mean survival time, dose: 200.0 mg/kg/injection, schedule: Q01DX001 (ip), vehicle: saline with Tween-80
[5] = endpoint: mean survival time, dose: 400.0 mg/kg/injection, schedule: Q01DX001 (ip), vehicle: saline with Tween-80
[6] = endpoint: mean survival time, dose: 6.25 mg/kg/injection, schedule: Q01DX009 (ip), vehicle: saline with Tween-80
[7] = endpoint: mean survival time, dose: 12.5 mg/kg/injection, schedule: Q01DX009 (ip), vehicle: saline with Tween-80
[8] = endpoint: mean survival time, dose: 25.0 mg/kg/injection, schedule: Q01DX009 (ip), vehicle: saline with Tween-80
[9] = endpoint: mean survival time, dose: 50.0 mg/kg/injection, schedule: Q01DX009 (ip), vehicle: saline with Tween-80
[10] = endpoint: mean survival time, dose: 100.0 mg/kg/injection, schedule: Q01DX009 (ip), vehicle: saline with Tween-80
[11] = endpoint: mean survival time, dose: 200.0 mg/kg/injection, schedule: Q01DX009 (ip), vehicle: saline with Tween-80
[12] = endpoint: mean survival time, dose: 400.0 mg/kg/injection, schedule: Q01DX009 (ip), vehicle: saline with Tween-80
[13] = endpoint: mean survival time, dose: 100.0 mg/kg/injection, schedule: Q04DX003 (ip), vehicle: saline with Tween-80
[14] = endpoint: mean survival time, dose: 200.0 mg/kg/injection, schedule: Q04DX003 (ip), vehicle: saline with Tween-80
[15] = endpoint: mean survival time, dose: 400.0 mg/kg/injection, schedule: Q04DX003 (ip), vehicle: saline with Tween-80

## C[As](C)SCC1OC(n2ccc(=O)[nH]c2=O)CC1O (stereo not drawn)
endpoint: median survival time, dose: 12.5 mg/kg/injection, schedule: Q01DX005 (ip), vehicle: distilled water + Tween-80
  T/C: 97 % of control
endpoint: median survival time, dose: 25.0 mg/kg/injection, schedule: Q01DX005 (ip), vehicle: distilled water + Tween-80
  T/C: 104 % of control
endpoint: median survival time, dose: 50.0 mg/kg/injection, schedule: Q01DX005 (ip), vehicle: distilled water + Tween-80
  T/C: 106 % of control
endpoint: median survival time, dose: 100.0 mg/kg/injection, schedule: Q01DX005 (ip), vehicle: distilled water + Tween-80
  T/C: 109 % of control

## CNC(=S)NNc1ccc(Cl)cc1
endpoint: mean survival time, dose: 12.5 mg/kg/injection, schedule: Q01DX009 (ip), vehicle: other
  T/C: 96 % of control
endpoint: mean survival time, dose: 25.0 mg/kg/injection, schedule: Q01DX009 (ip), vehicle: other
  T/C: 94 % of control
endpoint: mean survival time, dose: 50.0 mg/kg/injection, schedule: Q01DX009 (ip), vehicle: other
  T/C: 93 % of control
endpoint: mean survival time, dose: 100.0 mg/kg/injection, schedule: Q01DX009 (ip), vehicle: other
  T/C: 104 % of control

## NC(=O)N/N=C1/CC2CC1C1C=CCC21 (stereo not drawn)
[1]
  T/C: 102 % of control
[2]
  T/C: 107 % of control
[3]
  T/C: 98 % of control

## O=C(CCc1ccc(O)cc1)ON1C(=O)CCC1=O
endpoint: mean survival time, dose: 50.0 mg/kg/injection, schedule: Q01DX009 (ip), vehicle: Klucel (hydroxypropylcellulose) (HPC)
  T/C: 105 % of control

## CCCCCCCCC(C)c1cccc(C(C)CCCCCCCC)c1O (stereo not drawn)
[4]
  T/C: 103 % of control
[5]
  T/C: 103 % of control

## COc1ccc2c(c1)CCC1C(=O)NN=C21 (stereo not drawn)
[1]
  T/C: 103 % of control
[2]
  T/C: 103 % of control
[3]
  T/C: 103 % of control

## S=C=NCCc1ccccc1
endpoint: mean survival time, dose: 3.12 mg/kg/injection, schedule: Q01DX009 (ip), vehicle: saline with Tween-80
  T/C: 93 % of control
[6]
  T/C: 92 % of control
[7]
  T/C: 106 % of control
[8]
  T/C: 104 % of control
[9]
  T/C: 106 % of control

## N#CC(NC(=O)NCCO)c1ccccc1 (stereo not drawn)
[10]
  T/C: 94 % of control
[11]
  T/C: 96 % of control
[12]
  T/C: 92 % of control

## COC(=O)C(CCSC)NC(=O)C(C)NC(=O)OCc1ccccc1 (stereo not drawn)
[10]
  T/C: 98 % of control
[11]
  T/C: 95 % of control
[12]
  T/C: 95 % of control

## COC(=O)CCC1c2[nH]c3ccccc3c2CCN1C (stereo not drawn)
[13]
  T/C: 93 % of control
[14]
  T/C: 102 % of control
[15]
  T/C: 102 % of control

## c1ccc(C2NNC(c3ccccc3)NN2)cc1 (stereo not drawn)
endpoint: mean survival time, dose: 100.0 mg/kg/injection, schedule: Q01DX001 (ip), vehicle: other
  T/C: 100 % of control
endpoint: mean survival time, dose: 200.0 mg/kg/injection, schedule: Q01DX001 (ip), vehicle: other
  T/C: 97 % of control
endpoint: mean survival time, dose: 400.0 mg/kg/injection, schedule: Q01DX001 (ip), vehicle: other
  T/C: 92 % of control

## O=C(N/N=C/c1ccc([N+](=O)[O-])o1)c1ccccc1N=Cc1ccc([N+](=O)[O-])o1
[10]
  T/C: 96 % of control
[11]
  T/C: 98 % of control
[12]
  T/C: 104 % of control

## CCOC(=O)c1ncsc1NC(=O)NC
endpoint: mean survival time, dose: 75.0 mg/kg/injection, schedule: Q01DX001 (ip), vehicle: saline
  T/C: 101 % of control
endpoint: mean survival time, dose: 150.0 mg/kg/injection, schedule: Q01DX001 (ip), vehicle: saline
  T/C: 100 % of control

## NNN1CCN(N)CC1
endpoint: mean survival time, dose: 100.0 mg/kg/injection, schedule: Q01DX001 (ip), vehicle: saline with Tween-80
  T/C: 103 % of control
[4]
  T/C: 111 % of control
[5]
  T/C: 91 % of control

## C#CC12CCCCN1CCC2 (stereo not drawn)
endpoint: mean survival time, dose: 100.0 mg/kg/injection, schedule: Q01DX001 (ip), vehicle: saline
  T/C: 93 % of control
endpoint: mean survival time, dose: 200.0 mg/kg/injection, schedule: Q01DX001 (ip), vehicle: saline
  T/C: 97 % of control

## Cc1cc(N=Nc2ccc(S(=O)(=O)[O-])cc2)cc(C(=O)[O-])c1[O-].NC1CCCCC1N.[Na+].[Pt+4]
endpoint: median survival time, dose: 3.12 mg/kg/injection, schedule: Q04DX003 (ip), vehicle: saline with Tween-80
  T/C: 180 % of control and 287 % of control
endpoint: median survival time, dose: 6.25 mg/kg/injection, schedule: Q04DX003 (ip), vehicle: saline with Tween-80
  T/C: 265 % of control and 344 % of control
endpoint: median survival time, dose: 12.5 mg/kg/injection, schedule: Q04DX003 (ip), vehicle: saline with Tween-80
  T/C: 244 % of control and 310 % of control
endpoint: median survival time, dose: 25.0 mg/kg/injection, schedule: Q04DX003 (ip), vehicle: saline with Tween-80
  T/C: 122 % of control

## O=C([O][Hg][C](F)(F)F)C(F)(F)F
endpoint: mean survival time, dose: 6.25 mg/kg/injection, schedule: Q04DX003 (ip), vehicle: saline
  T/C: 98 % of control

## CN(C)C(=O)c1ccccc1C(=O)c1ccccc1
[1]
  T/C: 94 % of control
[2]
  T/C: 87 % of control
[3]
  T/C: 91 % of control

## CCCCO.[Ti]
[10]
  T/C: 103 % of control
[11]
  T/C: 97 % of control
[12]
  T/C: 104 % of control

## CCOC(=O)c1cnc(NN)nc1Nc1cc(Cl)cc(Cl)c1
[6]
  T/C: 94 % of control
[7]
  T/C: 86 % of control
endpoint: mean survival time, dose: 12.5 mg/kg/injection, schedule: Q04DX003 (ip), vehicle: saline with Tween-80
  T/C: 89 % of control
[8]
  T/C: 95 % of control
endpoint: mean survival time, dose: 25.0 mg/kg/injection, schedule: Q04DX003 (ip), vehicle: saline with Tween-80
  T/C: 89 % of control

## COc1cc(OC)c2c(c1Cl)OC(C(C)=O)C2=O (stereo not drawn)
[9]
  T/C: 97 % of control
[10]
  T/C: 102 % of control
[13]
  T/C: 93 % of control
[11]
  T/C: 96 % of control
[14]
  T/C: 102 % of control

## CC(NC(=O)C(CSCc1ccccc1)NC(=O)OCc1ccccc1)C(=O)OCc1ccccc1 (stereo not drawn)
[13]
  T/C: 96 % of control
[14]
  T/C: 98 % of control
[15]
  T/C: 93 % of control

## CCCCCC(=O)CCCC
[9]
  T/C: 109 % of control
[10]
  T/C: 102 % of control
[11]
  T/C: 105 % of control

## N#C/C(N)=C(\C#N)N=C1OCC(O)C(O)C1O (stereo not drawn)
endpoint: mean survival time, dose: 12.5 mg/kg/injection, schedule: Q01DX005 (ip), vehicle: other
  T/C: 102 % of control
endpoint: mean survival time, dose: 25.0 mg/kg/injection, schedule: Q01DX005 (ip), vehicle: other
  T/C: 101 % of control
endpoint: mean survival time, dose: 50.0 mg/kg/injection, schedule: Q01DX005 (ip), vehicle: other
  T/C: 98 % of control
endpoint: mean survival time, dose: 100.0 mg/kg/injection, schedule: Q01DX005 (ip), vehicle: other
  T/C: 106 % of control
endpoint: mean survival time, dose: 200.0 mg/kg/injection, schedule: Q01DX005 (ip), vehicle: other
  T/C: 112 % of control

## Nc1nc2ccc(NCc3ccc(C(=O)NC(CCC(=O)O)C(=O)O)cc3)cc2c(=O)[nH]1 (stereo not drawn)
endpoint: median survival time, dose: 6.25 mg/kg/injection, schedule: Q01DX009 (ip), vehicle: saline with Tween-80
  T/C: 100 % of control and 101 % of control
endpoint: median survival time, dose: 12.5 mg/kg/injection, schedule: Q01DX009 (ip), vehicle: saline with Tween-80
  T/C: 100 % of control and 108 % of control (2×)
endpoint: median survival time, dose: 25.0 mg/kg/injection, schedule: Q01DX009 (ip), vehicle: saline with Tween-80
  T/C: 115 % of control and 118 % of control and 119 % of control
endpoint: median survival time, dose: 50.0 mg/kg/injection, schedule: Q01DX009 (ip), vehicle: saline with Tween-80
  T/C: 155 % of control

## CCOS(=O)(=O)c1ccc(N)c([N+](=O)[O-])c1
endpoint: mean survival time, dose: 100.0 mg/kg/injection, schedule: Q01DX001 (ip), vehicle: Klucel (hydroxypropylcellulose) (HPC)
  T/C: 100 % of control
endpoint: mean survival time, dose: 100.0 mg/kg/injection, schedule: Q01DX009 (ip), vehicle: Klucel (hydroxypropylcellulose) (HPC)
  T/C: 100 % of control
endpoint: mean survival time, dose: 200.0 mg/kg/injection, schedule: Q01DX001 (ip), vehicle: Klucel (hydroxypropylcellulose) (HPC)
  T/C: 111 % of control
endpoint: mean survival time, dose: 200.0 mg/kg/injection, schedule: Q01DX009 (ip), vehicle: Klucel (hydroxypropylcellulose) (HPC)
  T/C: 100 % of control
endpoint: mean survival time, dose: 400.0 mg/kg/injection, schedule: Q01DX001 (ip), vehicle: Klucel (hydroxypropylcellulose) (HPC)
  T/C: 100 % of control

## Cc1c2ccccc2c(CSCCC(N)C(=O)O)c2ccccc12 (stereo not drawn)
[13]
  T/C: 96 % of control
[14]
  T/C: 93 % of control
[15]
  T/C: 90 % of control
